Melting point and Ki data for ten compounds are collected here from patent US20100076011A1, “Enantiomer-Pure Hexahydro-Pyrrolocyclopenta-Pyridine Derivatives” (priority 2004, published 2010).

SMILES strings stand for the structures. Counter-ions that a name gives are not always drawn.

System in one data set: not given
Assay: not given
Settings: not given
On to `c1cc2c(cn1)[C@H]1NCC[C@H]1C2` (as salt: hydrochloride) [Example 6, (−)-[3aR-(3aα,8bα)]-1,2,3,3a,4,8b-Hexahydropyrrolo[3′,2′:4,5]-cyclopenta[1,2-c]pyridinodihydrochloride], for which the melting point lay in the range of 94 to 95 °C.
In the case of `c1cnc2c(c1)C1NCCC1C2` (single isomer, unassigned; (-)) (as salt: hydrochloride) [Example 2, (−)-[3aα,8bα]-1,2,3,3a,4,8b-Hexahydropyrrolo-[2′,3′:3,4]cyclopenta[1,2-b]pyridine-dihydrochloride], the melting point lay in the range of 95 to 97 °C.

In a further data set the target is T1, α4β2-subtype (central nicotine receptor) (Rattus norvegicus, UniProt P09483+P12390).
T1 construct: Membrane-enriched fractions of rat brain without cerebellum; tissue ABS Inc. Wilmington, Del; host or cells: rat brain without cerebellum, membrane-enriched fractions
T1 sequence (P09483 31-630): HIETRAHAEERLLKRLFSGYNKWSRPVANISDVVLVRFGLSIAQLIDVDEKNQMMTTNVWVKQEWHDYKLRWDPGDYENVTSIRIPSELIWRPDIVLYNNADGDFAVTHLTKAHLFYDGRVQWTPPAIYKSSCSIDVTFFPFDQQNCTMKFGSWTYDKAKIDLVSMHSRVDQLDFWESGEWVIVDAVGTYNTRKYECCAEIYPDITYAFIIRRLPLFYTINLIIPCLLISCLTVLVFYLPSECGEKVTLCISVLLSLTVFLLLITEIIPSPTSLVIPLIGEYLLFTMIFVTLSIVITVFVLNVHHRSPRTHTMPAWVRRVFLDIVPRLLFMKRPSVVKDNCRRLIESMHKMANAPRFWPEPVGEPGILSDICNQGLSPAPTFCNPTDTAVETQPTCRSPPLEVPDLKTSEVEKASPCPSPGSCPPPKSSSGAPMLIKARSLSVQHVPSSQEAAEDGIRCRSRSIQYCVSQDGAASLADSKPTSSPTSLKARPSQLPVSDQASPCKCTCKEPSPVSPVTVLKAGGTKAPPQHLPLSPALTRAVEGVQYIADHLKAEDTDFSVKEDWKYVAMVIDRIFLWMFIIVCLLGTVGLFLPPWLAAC
T1 sequence (P12390 25-500): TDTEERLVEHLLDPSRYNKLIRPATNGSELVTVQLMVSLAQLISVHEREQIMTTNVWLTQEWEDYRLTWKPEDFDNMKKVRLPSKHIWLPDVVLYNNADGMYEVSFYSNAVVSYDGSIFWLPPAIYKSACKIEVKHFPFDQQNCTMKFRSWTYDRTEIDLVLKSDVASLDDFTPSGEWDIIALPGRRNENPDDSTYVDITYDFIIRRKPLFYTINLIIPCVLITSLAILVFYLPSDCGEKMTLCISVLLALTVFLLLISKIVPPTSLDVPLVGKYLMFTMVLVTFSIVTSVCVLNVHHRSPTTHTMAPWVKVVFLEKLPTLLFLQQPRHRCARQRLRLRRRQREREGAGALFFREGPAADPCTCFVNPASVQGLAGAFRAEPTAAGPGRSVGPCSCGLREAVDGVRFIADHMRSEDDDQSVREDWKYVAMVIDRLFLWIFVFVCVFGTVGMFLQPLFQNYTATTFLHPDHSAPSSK
The data set is described as follows: Radioligand assay: [3H] cytisin binding to the α4β2-subtype in rat brain membranes.
Settings: not given
The protocol: (2 samples each). The non-specific binding was determined with 10 μM (−)nicotine. The incubation was […] by vacuum filtration through a Whatman GF/C filter which previously had been humidified with 0.5% polyethylene imine. Bound radioactivity was collected on Millipore Multiscreen plates FB with a Packard Cell Harvester, and determined with a Packard Topcount Microplate Beta Counter. IC50 values were determined by non-linear regression, and from this the Ki values by means of the Cheng-Prusoff equation, wherein Ki=IC50/1+[ligand]/KID. The mean Ki values were obtained from at least three individual determinations.
`c1cnc2c(c1)C1NCCC1C2` (single isomer, unassigned; (+)) [Example 1, (+)-[3aα,8bα]-1,2,3,3a,4,8b-Hexahydropyrrolo-[2′,3′:3,4]cyclopenta[1,2-b]pyridine-dihydrochloride] showed a Ki of 2.43 µM.
The same measure, in the same setting: to `CN1CCC2Cc3ncccc3C21` (single isomer, unassigned; (+)) [Example 4, (+)-[3aα,8bα]-1,2,3,3a,4,8b-Hexahydro-1-methyl-pyrrolo[2′,3′:3,4]cyclopenta[1,2-b]pyridinedihydrochloride] belongs above 1000 µM; to `c1cnc2c(c1)C1NCCC1C2` (single isomer, unassigned; (-)) [Example 2, (−)-[3aα,8bα]-1,2,3,3a,4,8b-Hexahydropyrrolo-[2′,3′:3,4]cyclopenta[1,2-b]pyridine-dihydrochloride], above 1000 µM; to `CN1CCC2Cc3ncccc3C21` (single isomer, unassigned; (-)) [Example 3, (−)-[3aα,8bα]-1,2,3,3a,4,8b-Hexahydro-1-methyl-pyrrolo[2′,3′:3,4]cyclopenta[1,2-b]pyridine-dihydrochloride], 0.199 µM.
In turn, `c1cc2c(cn1)[C@H]1NCC[C@H]1C2` [Example 6, (−)-[3aR-(3aα,8bα)]-1,2,3,3a,4,8b-Hexahydropyrrolo[3′,2′:4,5]-cyclopenta[1,2-c]pyridinodihydrochloride] showed a Ki of 0.0152 µM.
In turn, `CN1CC[C@@H]2Cc3ccncc3[C@@H]21` [Example 7, (+)-[3aS-(3aα,8bα)]-1,2,3,3a,4,8b-Hexahydro-1-methyl-pyrrolo[3′,2′:4,5]-cyclopenta[1,2-c]pyridinodihydrochloride] yielded a Ki of 1.67 µM.
On the same count and under the same terms, to `CN1CC[C@H]2Cc3ccncc3[C@H]21` [Example 8, (−)-[3aR-(3aα,8bα)]-1,2,3,3a,4,8b-Hexahydro-1-methylpyrrolo[3′,2′:4,5]cyclopenta[1,2-c]pyridinodihydrochloride] belongs 0.027 µM.

The data set is the same for the next values; noted with them: [3H] cytisin 0.75 nM, rat brain membranes without cerebellum, 75 min at 4° C.; mean of at least three determinations; Ki from IC50 by Cheng-Prusoff; read-out: Ki Values of the Enantiomer Pairs.
Regarding `c1cc2c(cn1)[C@@H]1NCC[C@@H]1C2` [Example 5, (+)-(3aS-(3aα,8bα)]-1,2,3,3a,4,8b-Hexahydropyrrolo[3′,2′:4,5]-cyclopenta[1,2-c]-pyridinodihydrochloride], the Ki came to 1.11 µM.

What is called melting point is the temperature of the solid-liquid transition. Broadly, the Ki is the equilibrium dissociation constant of an inhibitor or competing ligand from its target.
